We go through 32 compounds from patent US9034882B2, “Inhibitors of human immunodeficiency virus replication” (priority 2012, dated 2015).

Like-named read-outs stand apart in the source and are kept apart here.

The test concerns recombinant NL-Rluc virus. Nature of the test: Inhibition of HIV replication (NL-RLuc luciferase reporter virus in MT-2 cells). It is filed as cell-based.
Setting [1] is: Human immunodeficiency virus 1, MT2, 120 h, read-out: Activity.
Where [2] appears, read: Human immunodeficiency virus 1, MT2, 120 h, read-out: EC50 μM.

`COC1CCN(c2c(C(OC(C)(C)C)C(=O)O)c(C)nc3cc(-c4ccccc4)nn23)CC1` (stereo not drawn) [Example 11]: the EC50 under setting [1] is more than 1 µM.

Take `Cc1nc2cc(-c3ccccc3)nn2c(N2CCC(C)(C)CC2)c1C(OC(C)(C)C)C(=O)O` (stereo not drawn) [Example 1, 2-(tert-butoxy)-2-(7-(4,4-dimethylpiperidin-1-yl)-5-methyl-2-phenylpyrazolo[1,5a]pyrimidin-6-yl)acetic acid]: the EC50 under setting [1] fell in the range of 0.1 to 1 µM and the EC50 under setting [2] was determined as 0.55 µM. With `Cc1nc2cc(-c3cccc(-c4ccccc4)c3)nn2c(N2CCOCC2)c1[C@H](OC(C)(C)C)C(=O)O` [Example 44, (S)-2-(2-([1,1′-Biphenyl]-3-yl)-5-methyl-7-morpholinopyrazolo[1,5-a]pyrimidin-6-yl)-2-(tert-butoxy)acetic acid], the EC50 under setting [1] fell in the range of 0.1 to 1 µM. For `Cc1nc2cc(-c3cccc(-c4ccccc4)c3)nn2c(N2[C@@H]3CCC[C@H]2CC3)c1[C@H](OC(C)(C)C)C(=O)O` [Example 43, (S)-2-(2-([1,1′-Biphenyl]-3-yl)-7-((1R,5S)-8-azabicyclo[3.2.1]octan-8-yl)-5-methylpyrazolo[1,5-a]pyrimidin-6-yl)-2-(tert-butoxy)acetic acid], the EC50 is, setting by setting: under setting [1], 0.1 to 1 µM; under setting [2], 0.78 µM. For `Cc1nc2cc(-c3ccccc3)nn2c(N2CCCC2C(C)C)c1C(OC(C)(C)C)C(=O)O` (stereo not drawn) [Example 25], the EC50 under setting [1] is more than 1 µM. In the case of `Cc1nc2cc(-c3cccc(-c4ccc(F)cc4)c3)nn2c(N2CCC3(CC2)CC3)c1[C@H](OC(C)(C)C)C(=O)O` [Example 54, (S)-2-(tert-Butoxy)-2-(2-(4′-fluoro-[1,1′-biphenyl]-3-yl)-5-methyl-7-(6-azaspiro[2.5]octan-6-yl)pyrazolo[1,5-a]pyrimidin-6-yl)acetic acid], the EC50 under setting [1] fell in the range of 0.1 to 1 µM. Turning to `Cc1nc2cc(-c3cccc(OCc4ccccc4)c3)nn2c(N2CCC(C)(C)CC2)c1C(OC(C)(C)C)C(=O)O` (stereo not drawn) [Example 32, 2-(2-(3-(benzyloxy)phenyl)-7-(4,4-dimethylpiperidin-1-yl)-5-methylpyrazolo[1,5-a]pyrimidin-6-yl)2-(tert-butoxy)acetic acid], the EC50 by setting is: under setting [1], less than 0.1 µM; under setting [2], 0.06 µM. For `Cc1nc2c(-c3cccc(Cl)c3)cnn2c(N2CCC(C)(C)CC2)c1C(OC(C)(C)C)C(=O)O` (stereo not drawn) [Example 36, 2-(tert-butoxy)-2-(3-(3-chlorophenyl)-7-(4,4-dimethylpiperidin-1-yl)-5-pyrazolo[1,5a]pyrimidin-6-yl)acetic acid], the EC50 under setting [1] lay within 0.1 to 1 µM. Turning to `Cc1nc2cc(-c3cccc(-c4ccccc4F)c3)nn2c(N2CCC3(C)CC3C2)c1[C@H](OC(C)(C)C)C(=O)O` (stereo partly drawn) [Example 63, (2S)-2-(tert-Butoxy)-2-(2-(2′-fluoro-[1,1′-biphenyl]-3-yl)-5-methyl-7-(6-methyl-3-azabicyclo[4.1.0]heptan-3-yl)pyrazolo[1,5-a]pyrimidin-6-yl)acetic acid], the EC50 under setting [1] fell in the range of 0.1 to 1 µM. On the same count and under the same terms, next, `Cc1nc2cc(-c3ccc4c(c3)CCCC4)nn2c(N2CCC(C)(C)CC2)c1[C@H](OC(C)(C)C)C(=O)O` [Example 33, (S)-2-(tert-Butoxy)-2-(7-(4,4-dimethylpiperidin-1-yl)-5-methyl-2-(5,6,7,8-tetrahydronaphthalen-2-yl)pyrazolo[1,5-a]pyrimidin-6-yl)acetic acid]: 0.1 to 1 µM. Take `Cc1nc2cc(-c3ccccc3)nn2c(N2CCCCC2C)c1C(OC(C)(C)C)C(=O)O` (stereo not drawn) [Example 20]: under “read-out: Activity, MT-2 cells infected with NL-RLuc virus, 5 days of incubation, luciferase readout, serum condition not given”, the EC50 lay in the range of 0.1 to 1 µM. Regarding `Cc1nc2cc(-c3cccc(-c4ccccc4F)c3)nn2c(N2CCC3(CC2)CC3)c1[C@H](OC(C)(C)C)C(=O)O` [Example 51, (S)-2-(tert-Butoxy)-2-(2-(2′-fluoro-[1,1′-biphenyl]-3-yl)-5-methyl-7-(6-azaspiro[2.5]octan-6-yl)pyrazolo[1,5-a]pyrimidin-6-yl)acetic acid], under setting [1], the EC50 was in the range of 0.1 to 1 µM.

On to `Cc1nc2nc(-c3cccc(-c4ccccc4)c3)nn2c(N2CCC(C)(C)CC2)c1[C@H](OC(C)(C)C)C(=O)O` [Example 42, (S)-2-(2-([1,1′-Biphenyl]-3-yl)-7-(4,4-dimethylpiperidin-1-yl)-5-methyl-[1,2,4]triazolo[1,5-a]pyrimidin-6-yl)-2-(tert-butoxy)acetic acid], for which the EC50 was less than 0.1 µM under setting [1] and 0.05 µM under setting [2].

`Cc1nc2cc(-c3ccccc3)nn2c(N2CCC(C)(C)C2)c1[C@H](OC(C)(C)C)C(=O)O` [Example 28, (S)-2-(tert-butoxy)-2-(7-(3,3-dimethylpyrrolidin-1-yl)-5-methyl-2-phenylpyrazolo[1,5-a]pyrimidin-6-yl)acetic acid]: under setting [1], the EC50 is 0.1 to 1 µM. For `Cc1nc2cc(-c3cccc(-c4ccc(F)cc4)c3)nn2c(N2CCC(C)(C)CC2)c1[C@H](OC(C)(C)C)C(=O)O` [Example 56, (S)-2-(tert-Butoxy)-2-(7-(4,4-dimethylpiperidin-1-yl)-2-(4′-fluoro-[1,1′-biphenyl]-3-yl)-5-methylpyrazolo[1,5-a]pyrimidin-6-yl)acetic acid], the EC50 under setting [1] was in the range of 0.1 to 1 µM. As for `Cc1nc2cc(-c3cccc(-c4ccccc4)c3)nn2c(N2[C@@H]3CC[C@H]2COC3)c1[C@H](OC(C)(C)C)C(=O)O` [Example 45, (S)-2-(2-([1,1′-Biphenyl]-3-yl)-7-((1R,5S)-3-oxa-8-azabicyclo[3.2.1]octan-8-yl)-5-methylpyrazolo[1,5-a]pyrimidin-6-yl)-2-(tert-butoxy)acetic acid], the EC50 was more than 1 µM under setting [1] and 3.14 µM under setting [2].

In the case of `Cc1nc2cc(-c3cccc(OCc4ccccc4)n3)nn2c(N2CCC(C)(C)CC2)c1[C@H](OC(C)(C)C)C(=O)O` [Example 69, (S)-2-(2-(6-(Benzyloxy)pyridin-2-yl)-7-(4,4-dimethylpiperidin-1-yl)-5-methylpyrazolo[1,5-a]pyrimidin-6-yl)-2-(tert-butoxy)acetic acid], the EC50 was 0.1 to 1 µM under setting [1] and 0.19 µM under setting [2]. As to `Cc1nc2cc(-c3ccccc3)nn2c(N2CCC(C(C)(C)C)CC2)c1C(OC(C)(C)C)C(=O)O` (stereo not drawn) [Example 17], under setting [1], the EC50 was more than 1 µM.

In the case of `Cc1nc2cc(-c3ccc4c(c3)CCCC4)nn2c(N2CCC(C)CC2)c1[C@H](OC(C)(C)C)C(=O)O` [Example 34, (S)-2-(tert-Butoxy)-2-(5-methyl-7-(4-methylpiperidin-1-yl)-2-(5,6,7,8-tetrahydronaphthalen-2-yl)pyrazolo[1,5-a]pyrimidin-6-yl)acetic acid], under setting [1], the EC50 is 0.1 to 1 µM. `Cc1nc2cc(-c3ccccc3)nn2c(N2CCC(C(=O)O)CC2)c1C(OC(C)(C)C)C(=O)O` (stereo not drawn) [Example 13]: under setting [1], the EC50 is more than 1 µM.

Regarding `Cc1nc2cc(-c3ccccc3)nn2c(N2CCCNCC2)c1C(OC(C)(C)C)C(=O)O` (stereo not drawn) [Example 4, 2(7-(1,4-diazepan-1-yl)-5-methyl-2-phenylpyrazolo[1,5a]pyrimidin-6-yl)-2-(tert-butoxy)-acetic acid], under setting [1], the EC50 was more than 1 µM. For `Cc1nc2cc(-c3ccccc3)nn2c(N2CCC(C)CC2)c1C(OC(C)(C)C)C(=O)O` (stereo not drawn) [Example 8, 2-(tert-butoxy)-2-(5-methyl-7-(4-methylpiperidin-1-yl)-2-phenylpyrazolo[1,5a]pyrimidin-6-yl)acetic acid], the EC50 under setting [1] was 0.1 to 1 µM and the EC50 under setting [2] was found to be 0.72 µM. Turning to `Cc1nc2cc(-c3cc(-c4ccccc4)ccn3)nn2c(N2CCC(C)(C)CC2)c1[C@H](OC(C)(C)C)C(=O)O` [Example 65, (S)-2-(tert-Butoxy)-2-(7-(4,4-dimethylpiperidin-1-yl)-5-methyl-2-(4-phenylpyridin-2-yl)pyrazolo[1,5-a]pyrimidin-6-yl)acetic acid], under setting [1], the EC50 lay in the range of 0.1 to 1 µM. Same read-out and setting: next, `Cc1nc2cc(-c3cccc(-c4ccccc4)n3)nn2c(N2CCC(C)(C)CC2)c1[C@H](OC(C)(C)C)C(=O)O` [Example 67, (S)-2-(tert-Butoxy)-2-(7-(4,4-dimethylpiperidin-1-yl)-5-methyl-2-(6-phenylpyridin-2-yl)pyrazolo[1,5-a]pyrimidin-6-yl)acetic acid]: 0.1 to 1 µM; `Cc1nc2cc(-c3ccccc3)nn2c(N2CCCCC2C)c1C(OC(C)(C)C)C(=O)O` (stereo not drawn) [Example 19]: 0.1 to 1 µM; `Cc1nc2cc(-c3cccc(-c4cccc(F)c4)c3)nn2c(N2CCC(C)(C)CC2)c1[C@H](OC(C)(C)C)C(=O)O` [Example 55, (S)-2-(tert-Butoxy)-2-(7-(4,4-dimethylpiperidin-1-yl)-2-(3′-fluoro-[1,1′-biphenyl]-3-yl)-5-methylpyrazolo[1,5-a]pyrimidin-6-yl)acetic acid]: 0.1 to 1 µM. `Cc1nc2cc(-c3cccc(-c4ccccc4)c3)nn2c(N2CCC3(CC2)CC3)c1[C@H](OC(C)(C)C)C(=O)O` [Example 47, (S)-2-(2-([1,1′-Biphenyl]-3-yl)-5-methyl-7-(6-azaspiro[2.5]octan-6-yl)pyrazolo[1,5-a]pyrimidin-6-yl)-2-(tert-butoxy)acetic acid]: the EC50 under setting [1] was in the range of 0.1 to 1 µM. For the compound `Cc1nc2cc(-c3ccccc3)nn2c(N2CCC(C(F)(F)F)CC2)c1C(OC(C)(C)C)C(=O)O` (stereo not drawn) [Example 23], the EC50 under setting [1] was more than 1 µM. Still for that read-out and setting: the result for `Cc1nc2cc(-c3cccc(Cc4ccccc4)n3)nn2c(N2CCC(C)(C)CC2)c1[C@H](OC(C)(C)C)C(=O)O` [Example 70, (S)-2-(2-(6-Benzylpyridin-2-yl)-7-(4,4-dimethylpiperidin-1-yl)-5-methylpyrazolo[1,5-a]pyrimidin-6-yl)-2-(tert-butoxy)acetic acid] reads 0.1 to 1 µM; that for `Cc1nc2cc(-c3ccccc3)nn2c(N2Cc3ccccc3C2)c1C(OC(C)(C)C)C(=O)O` (stereo not drawn) [Example 5, 2-(tert-butoxy)-2-(7-(isoindolin-2-yl)-5-methyl-2-phenylpyrazolo[1,5a]pyrimidin-6-yl)acetic acid], more than 1 µM; that for `Cc1nc2cc(-c3ccccc3)nn2c(N2CCCCCC2)c1C(OC(C)(C)C)C(=O)O` (stereo not drawn) [Example 6, 2(7-(azepan-1-yl)-5-methyl-2-phenylpyrazolo[1,5a]pyrimidin-6-yl)-2-(tert-butoxy)-acetic acid], more than 1 µM. As to `Cc1ccccc1-c1cccc(-c2cc3nc(C)c([C@H](OC(C)(C)C)C(=O)O)c(N4CCC(C)(C)CC4)n3n2)c1` [Example 58, (S)-2-(tert-Butoxy)-2-(7-(4,4-dimethylpiperidin-1-yl)-5-methyl-2-(2′-methyl-[1,1′-biphenyl]-3-yl)pyrazolo[1,5-a]pyrimidin-6-yl)acetic acid], under setting [1], the EC50 is less than 0.1 µM.
